Results reported in EP0513703A2, “Carbamate esters of eseroline having anticholinesterase activity, a process for their preparation and relative pharmaceutical compositions containing them as the active principle” (priority 1991, dated 1992).
Several values for one entry are separate records, joined by “and”; a condition that tells them apart may be missing. Identical values can stand only once.

Tests used:
mouse [1] = assay: Spontaneous motility, Dews method modified according to Carminati (class D derivatives); type: in vivo; conditions: mouse (Swiss)
Text: (§1) The Dews method was used, modified according to Carminati (Arch. int. Pharmacodyn. et Thér 181, 68,1969).

mice (Swiss strain) [2] = assay: Acute toxicity, LD50 by oral route in mice (class D derivatives); type: in vivo; conditions: mouse, suspension in 2 % carboxymethylcellulose, observation 7 days
Text: The letal doses 50 (LD50) by oral route (suspension in 2 % carboxymethylcellulose) are reported hereinbelow: TABLE 6

[3] = tested on: acetylcholinesterase (AchE); type: in vivo, Wistar male rats; conditions: rat, oral, 1-2 mg/kg
rabbit [4] = assay: Effect on the duration of the curarization by succinylcholine (class D derivatives); type: in vivo; conditions: anesthetized rabbit, 0.5 mg intravenous
[5] = tested on: mice (Swiss strain of both sexes); assay: Acute toxicity, LD50 by oral administration in mice (class F derivatives); conditions: mice, oral administration
[6] = Pharmacokinetics after oral and intramuscular administration (class F derivatives); type: in vivo; conditions: rats; for maximum peak / time of the maximum peak after the oral administration: oral administration 7 mg/kg
Method: The kinetics of MGR001, MGR002, and MGR003 is determined in rats after oral administration and intramuscular of respectively 7 and 3.5 mg/kg. The maximum peak of 30 µg/ml is found 1 hour after the oral administration.

motor activity [7] = assay: Antagonistic effect on the stimulating effect of scopolamine (class F derivatives); type: in vivo; conditions: scopolamine 1 mg/kg; for oral dose countering the stimulating effect of scopolamine: oral administration
Method: At the dose of 1 mg/kg the scopolamine produce a clear stimulating effect (100 % of motor activity increase). This is countered by the oral administration of 2.5 mg of the three products MGR001, MGR002 and MGR003.

[8] = target: T1, AChE (acetylcholinesterase) on the mouse brain (Mus musculus, UniProt P21836); assay: Inhibition of AChE on the mouse brain after single doses (class F derivatives); type: in vivo; conditions: single doses (0.4-7 mg/kg)
T1 construct: from tissue; host or cells: mouse brain
T1 sequence (P21836 32-614): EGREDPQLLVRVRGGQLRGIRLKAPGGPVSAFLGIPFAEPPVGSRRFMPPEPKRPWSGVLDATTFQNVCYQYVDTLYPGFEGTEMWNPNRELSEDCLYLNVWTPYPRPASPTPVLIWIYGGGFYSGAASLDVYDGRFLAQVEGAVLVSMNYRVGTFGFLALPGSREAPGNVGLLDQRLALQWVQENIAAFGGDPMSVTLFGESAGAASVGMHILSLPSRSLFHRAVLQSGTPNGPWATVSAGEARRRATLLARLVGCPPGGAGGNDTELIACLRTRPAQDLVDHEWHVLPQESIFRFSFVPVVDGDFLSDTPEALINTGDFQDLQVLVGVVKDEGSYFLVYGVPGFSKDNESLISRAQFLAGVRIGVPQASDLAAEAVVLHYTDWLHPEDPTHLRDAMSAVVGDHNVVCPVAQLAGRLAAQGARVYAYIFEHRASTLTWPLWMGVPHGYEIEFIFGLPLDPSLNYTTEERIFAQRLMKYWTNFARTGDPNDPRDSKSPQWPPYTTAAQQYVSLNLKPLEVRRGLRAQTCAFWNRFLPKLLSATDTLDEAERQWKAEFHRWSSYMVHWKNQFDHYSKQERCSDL

rabbit [9] = assay: Effect on the duration of the curarization by succinylcholine (class A derivatives); type: in vivo; conditions: anesthetized rabbit, 0.8 mg/kg intravenous
Text: . […] By using the same method (male rabbits of the tawny strain of Bourgogne; […]

mouse [10] = assay: Spontaneous motility, Dews method modified according to Carminati (class A derivatives); type: in vivo; conditions: mouse (Swiss), oral, starting from minimum doses of 4-6 mg/kg
Text: as §1

SWISS male mice = assay: Electroencephalographic activity (class A derivatives); type: in vivo; conditions: 6 mg/kg/os, in the course of the successive 30 minutes
mice (Swiss strain) [11] = assay: Acute toxicity, LD50 by oral route in mice (class A derivatives); type: in vivo; conditions: mouse, suspension in 2 % carboxymethylcellulose, observation 7 days
Text: The letal doses 50 (LD50) by oral route (suspension in 2 % carboxymethylcellulose) are reported herinbelow: TABLE 1

[12] = tested on: acetylcholinesterase (AchE); type: in vivo, Wistar male rats; conditions: rat; for inhibitory cerebral and serumal acetylcholinesterase activity (in words): oral, 1.5 to 4.5 mg/kg
[13] = Pharmacokinetics, plasma level by HPLC (MGS101); type: in vivo, Wistar male rats; conditions: rat, 6 mg/kg/os
Method: The presence of said substance in plasma was detected by HPLC.
With the optimized method the detection limit was of 0.15 µg per ml of plasma.

motor activity [14] = assay: Antagonistic effect on the stimulating effect of scopolamine (class B derivatives); type: in vivo; conditions: scopolamine 1 mg/kg
Method: At the dose of 1 mg/kg, scopolamine produces an evident stimulating effect (100% increase in motor activity).
This effect is countered by the oral administration of 2.5 mg of the above mentioned compounds.

motor activity [15] = assay: Antagonist effect on the stimulating effect of scopolamine (class C derivatives); type: in vivo; conditions: scopolamine 1 mg/kg
Method: This is countered by the oral administration of 2.5 mg of ES001, ES002, ES003.

[16] = tested on: anticholinesterase activity, on the mouse brain; assay: Inhibition of cholinesterase activity on the mouse brain after single doses (class C derivatives); type: in vivo
mouse [17] = assay: Toxicity, LD50 by intraperitoneal route (class C derivatives); type: in vivo
Text: In the following table reported are the LD50 values determined on mouse for the compounds listed and compared with the corresponding LD50 value for physostigmine, administered by the same (intraperitoneal) route.

[18] = acetylcholinesterase inhibition 20 minutes after oral administration, limits in brackets

In the case of `CNCCCCCNC(=O)Oc1ccc2c(c1)[C@]1(C)CCN(C)[C@@H]1N2C` [MGF002, (3a S-cis) - 1,2,3,3a,8,8a hexahydro - 1,3a,8 - trimethyl pyrrol [2,3,b]-indol-5-ol-N-methyl-aminopentyl carbamate ester], the “oral dose causing a significant decrease of the spontaneous motility” value (mouse [1]) is reported as 2.5 to 5 mg/kg, the LD50 per os (mice (Swiss strain) [2]) is reported as 436.72 ± 23.45 mg/kg and the “inhibitory acetylcholinesterase activity (in words)” value [3] is reported as “clear inhibitory dose-dependent and reversible”. For the same molecule, the “curare effect of succinylcholine compared with physostigmine” value (rabbit [4]) was “prolonged in the same way as physostigmine the curare effect of succinylcholine”.
In the case of `CN1CC[C@@]2(C)c3cc(OC(=O)NCCCCCCCN)ccc3N(C)[C@@H]12` [MGF005, (3a S-cis) - 1,2,3,3a,8,8a hexahydro - 1,3a,8 - trimethyl pyrrol [2,3,b]-indol-5-ol-amino heptyl carbamate ester], the “oral dose causing a significant decrease of the spontaneous motility” value (mouse [1]) is reported as 2.5 to 5 mg/kg, the LD50 per os (mice (Swiss strain) [2]) is reported as 428.42 ± 56.21 mg/kg and the “inhibitory acetylcholinesterase activity (in words)” value [3] is reported as “clear inhibitory dose-dependent and reversible”.
For `CC(=O)OCC(COP(=O)(O)OCCNC(=O)Oc1ccc2c(c1)[C@]1(C)CCN(C)[C@@H]1N2C)OC(C)=O` (stereo partly drawn) [MGR001, (3aS-cis) 1,2,3,3a,8,8a-hexahydro-1,3a,8 trimethyl-pyrrol-[2,3-b]-indol-5-ol-diacetylglycerylphosphoryl-ethyl carbamate ester], the LD50 [5] was 500 mg/kg, the “liver kinetics / excretion” value [6] was “pass through into the urine unchanged” and the maximum peak [6] was 30 µg/mL. For the same molecule, the “time of the maximum peak after the oral administration” value (shortened to “time … after the oral administration”) [6] was 1 h, the “oral dose countering the stimulating effect of scopolamine” value (motor activity [7]) was 2.5 mg and the “inhibition of AChE (acetylcholinesterase) on the mouse brain (in words)” value (from here on “inhibition of AChE”) [8] was “dose-dependence and reversible inhibition”.
In the case of `CN1CC[C@@]2(C)c3cc(OC(=O)NCCOP(=O)(O)OCC(O)CO)ccc3N(C)[C@@H]12` (stereo partly drawn) [MGR002, (3aS-cis) 1,2,3,3a,8,8a-hexahydro-1,3a,8 trimethyl-pyrrol-[2,3-b]-indol-5-ol-glycerylphosphoryl-ethyl carbamate ester], the LD50 [5] is reported as 485 mg/kg, the “liver kinetics / excretion” value [6] is reported as “pass through into the urine unchanged” and the maximum peak [6] is reported as 30 µg/mL. The “time … after the oral administration” value [6] was 1 h, the “oral dose countering the stimulating effect of scopolamine” value (motor activity [7]) was 2.5 mg and the “inhibition of AChE” value [8] was “dose-dependence and reversible inhibition”.
In the case of `CC(=O)OCC(COP(=O)(O)OC[C@H](NC(=O)Oc1ccc2c(c1)[C@]1(C)CCN(C)[C@@H]1N2C)C(=O)O)OC(C)=O` (stereo partly drawn) [MGR003, (3aS-cis) 1,2,3,3a,8,8a-hexahydro - 1,3a,8 trimethyl-pyrrol-[2,3-b]-indol-5-ol-diacetyl-glycerylphosphoryl-2L -carboxylethyl carbamate ester], the LD50 [5] is reported as 350 mg/kg, the maximum peak [6] is reported as 30 µg/mL and the “time … after the oral administration” value [6] is reported as 1 h. The “oral dose countering the stimulating effect of scopolamine” value (motor activity [7]) was 2.5 mg and the “inhibition of AChE” value [8] was “dose-dependence and reversible inhibition”.
For `CC[C@H](C)[C@H](NC(=O)Oc1ccc2c(c1)[C@]1(C)CCN(C)[C@@H]1N2C)C(=O)O` [MGS101], the “effect on the curarization by succinylcholine compared with physostigmine” value (rabbit [9]) was “induced the same anticholinesterase effect of physostigmine”, the “decrease of the spontaneous motility (on average)” value (mouse [10]) was roughly -30% and the “modifications of the electroencephalogram” value (SWISS male mice) was “increase of the amplitude and a decrease of the frequency of the electroencephalogram”. For the same molecule, the LD50 per os (mice (Swiss strain) [11]) was 332.8 ± 6.20 mg/kg, the “INHIBITION % OF ACETYLCHOLINESTERASE (AchE) after 60 minutes brain” value ([12]; 3.5 mg/kg/OS) was 38.71 ± 6.12% and the “INHIBITION % OF ACETYLCHOLINESTERASE (AchE) after 60 minutes serum” value ([12]; 3.5 mg/kg/OS) was 31.6 ± 4.25%. For the same molecule, the “INHIBITION % OF ACETYLCHOLINESTERASE (AchE) after 120 minutes serum” value ([12]; 3.5 mg/kg/OS) was 20.12 ± 2.40%, the “ED50 (mg/kg/os) brain” value [12, 18] was 2.89 (1.83 - 4.59) mg/kg/os and the “ED50 (mg/kg/os) serum” value [12, 18] was 2.89 (1.82 - 4.49) mg/kg/os. The “inhibitory cerebral and serumal acetylcholinesterase activity (in words)” value [12] was “clear inhibitory dose-dependent and reversible”, the “concentration in plasma after 20 minutes” value [13] was 15910 ± 4210 ng/mL and the “concentration in plasma after 24 hours” value [13] was 4310 ± 1980 ng/mL. The “concentration in plasma at the twelfth hour” value [13] was 14220 ± 3120 ng/mL, the “maximum peak in plasma” value [13] was 33.81 ± 6.15 µg/mL and the “time of the maximum peak in plasma” value [13] was 90 '.
For `CCCCCCCOC(=O)[C@@H](NC(=O)Oc1ccc2c(c1)[C@]1(C)CCN(C)[C@@H]1N2C)[C@@H](C)CC` [MGS102, (3aS-cis) 1,2,3,3a,8,8a hexahydro-1,3a, 8-trimethyl-pyrrol (2,3-b) indol-5-ol-L-(3-methyl-2 carboxy-n-heptyl)-butyl-carbamate], the “effect on the curarization by succinylcholine compared with physostigmine” value (rabbit [9]) was “induced the same anticholinesterase effect of physostigmine”, the “decrease of the spontaneous motility (on average)” value (mouse [10]) was roughly -30% and the LD50 per os (mice (Swiss strain) [11]) was 358.3 ± 18.83 mg/kg. For the same molecule, the “inhibitory cerebral and serumal acetylcholinesterase activity (in words)” value [12] was “clear inhibitory dose-dependent and reversible”.
With `CN1[C@@H]2C[C@@H](OC(=O)[C@H](CO)c3ccccc3)C[C@H]1[C@@H]1O[C@@H]12` [scopolamine, reference compound] the motor activity increase (motor activity [7]) was 100%, the “increase in motor activity” value (motor activity [14]) was 100% and the “increase in motor activity” value (motor activity [15]) was 100%.
For “trimethyl -1,3a,8-hexahydro-1,2,3a,8,8a-pyrrol(2,3-b)indol-5-(3aS,8aR)12-hydroxystearylpropylcarbamate [ES003]”, the “suppression of the enzymatic activity” value ([16]; even at higher doses) was “do not completely suppress the enzymatic activity”, the “duration of the inhibitory activity compared with physostigmine” value ([16]; mouse brain) was “lasts longer than that of physostigmine” and the “inhibition of the anticholinesterase activity, on the mouse brain (in words)” value ([16]; single doses in the range 0.4-7mg/kg) was “dose-dependence, reversible inhibition”. The “LD50 (mg/kg i.p)” value (mouse [17]) was >40 mg/kg i.p and <80 mg/kg i.p and the “oral dose countering the stimulating effect of scopolamine” value (motor activity [15]; oral administration) was 2.5 mg.
